Experimental findings from patent US20200148635A1 (priority 2017, published 2020) are described below.

One assay concerns Bortytis cinera. In words: Greenhouse Bortytis cinera test in tomato, preventive. It counts as in vivo. The settings on record: Solanum lycopersicum, preventive spray on tomato plants, inoculated one day after treatment with Bortytis cinera, read-out: control compared to the untreated check. Here is the method: Bortytis cinera Test in Tomato
Compounds were dissolved in 2% DMSO/Acetone and then mixed with water to calibrated spray volume of 50 mL. This 50 mL spray solution was poured into the spray bottles for further applications.
To test the preventive activity of compounds, healthy young tomato plants raised in the greenhouse were sprayed with active compound preparation at the stated application rates inside the spray cabinets using hallowcone nozzles. One day after treatment, the plants were inoculated with spore suspension (2% Malt) containing 1.2×10^6 Bortytis cinera inoculum. The inoculated plants were then kept in greenhouse chamber at 18-20° C. temperature and 90-100% relative humidity for disease expression.
A visual assessment of compound's performance was carried by rating the disease severity (0-100% scale) on treated plants on 3, 7, 10 and 15 days after application. Efficacy (% control) of the compounds was calculated by comparing the disease rating in the treatment with untreated control. The sprayed plants were also assessed for compound's phytotoxic effects by recording symptoms like necrosis, chlorosis and stunting.

Another assay relates to Pyricularia oryzae. Briefly: microbe, parasite or virus in culture. It counts as cell-based. The settings on record: 168 h, read-out: control compared to the untreated check.
In another assay the test system is Phakopsora pachyrhizi. In words: Greenhouse Phakopsora pachyrhizi test in soybean, preventive. As to conditions: preventive spray on soybean plants, inoculated one day after treatment with Phakopsora pachyrhizi, read-out: control compared to the untreated check. It counts as in vivo. Here is the method:
Phakopsora pachyrhizi Test in Soybean
Compounds were dissolved in 2% DMSO/Acetone and then mixed with water to the calibrated spray volume of 50 mL and poured into the spray bottles for further applications.
To test the preventive activity of compounds, healthy young soybean plants raised in the greenhouse were sprayed with active compound preparation at the stated application rates inside the spray cabinets using hallowcone nozzles. One day after treatment, the plants were inoculated with spore suspension containing 2.1×10^6 Phakopsora pachyrhizi inoculum. The inoculated plants were then kept in greenhouse chamber at 25° C. temperature and 90% relative humidity for disease expression.
A visual assessment of compound's performance was carried out by rating the disease severity (0-100% scale) on treated plants on 3, 7, 10 and 15 days after application. Efficacy (% control) of the compounds was calculated by comparing the disease rating in the treatment with the one of the untreated control. The sprayed plants were also assessed for compound's plant compatibility by recording symptoms like necrosis, chlorosis and stunting.

The test system of the next assay is Rhizoctonia solani. Briefly: In vitro test Rhizoctonia solani (rice sheath blight/potato black scurf), radial growth on Potato Dextrose Agar. As to conditions: 168 h, agar plate, 25° C., seven days, read-out: control compared to the untreated check. Format: cell-based. Here is the method: Rhizoctonia solani (Rice Sheath Blight/Potato Black Scurf):
Compounds were dissolved in 0.3% DMSO and then added to Potato Dextrose Agar medium just prior to dispensing it into Petri dishes. 5 mL medium with compound in the desired concentration was dispensed into 60 mm sterile Petri-plates. After solidification each plate was seeded with 5 mm size mycelial disc taken form periphery of actively growing virulent culture plate. Plates were incubated in growth chambers at 25° C. temperature and 60% relative humidity for seven days and radial growth was measured.

For a further assay, the system named is Fusarium culmorum. Briefly: In vitro test Fusarium culmorum (foot rot of cereals), radial growth on Potato Dextrose Agar. It counts as cell-based. As to conditions: 300 ppm, agar plate, 25° C., seven days. Here is the method: Fusarium culmorum (Foot Rot of Cereals):
Compounds were dissolved in 0.3% DMSO and then added to Potato Dextrose Agar medium just prior to dispensing it into petri dishes. 5 mL medium with compound in the desired concentration was dispensed into 60 mm sterile Petri-plates. After solidification each plate was seeded with 5 mm size mycelial disc taken form periphery of actively growing virulent culture plate. Plates were incubated in growth chambers at 25° C. temperature and 60% relative humidity for seven days and radial growth was measured.

For another assay, the system named is Alternaria solani. Briefly: In vitro test Alternaria solani (early blight of tomato/potato), radial growth on Potato Dextrose Agar. Format: cell-based. The settings on record: 168 h, agar plate, 25° C., seven days, read-out: control compared to the untreated check. The protocol: Alternaria solani (early blight of tomato/potato): Compounds were dissolved in 0.3% DMSO and then added to Potato Dextrose Agar medium just prior to dispensing it into Petri dishes. 5 mL medium with compound in the desired concentration was dispensed into 60 mm sterile Petri-plates. After solidification each plate was seeded with 5 mm size mycelial disc taken form periphery of actively growing virulent culture plate. Plates were incubated in growth chambers at 25° C. temperature and 60% relative humidity for seven days and radial growth was measured.

The test system of a further assay is Septoria lycopersici. In words: In vitro test Septoria lycopersici (leaf spot of tomato), radial growth on Potato Dextrose Agar. It counts as cell-based. The settings on record: 168 h, agar plate, 25° C., seven days, read-out: control compared to the untreated check. Here is the method: Septoria lycopersici (Leaf Spot of Tomato):
Compounds were dissolved in 0.3% DMSO and then added to Potato Dextrose Agar medium just prior to dispensing it into Petri dishes. 5 mL medium with compound in the desired concentration was dispensed into 60 mm sterile Petri-plates. After solidification each plate was seeded with 5 mm size mycelial disc taken form periphery of actively growing virulent culture plate. Plates were incubated in growth chambers at 25° C. temperature and 70% relative humidity for seven days and radial growth was measured.

A value given as a limit tells only on which side of the number the result lay.

Consider `CCN(C)C=Nc1cc(C)c(N=S(C)(=O)c2cccc(OC)c2)cc1C` (centres unmarked) [Compound 74], for which the pest or weed control at 500 ppm in the assay on Bortytis cinera and in the assay with Phakopsora pachyrhizi was greater than 70% each time. The inhibition of growth at 300 ppm in the assay with Pyricularia oryzae was greater than 70%.

Regarding `CCN(C)C=Nc1cc(C)c(S(=O)(CC(C)C)=Nc2ccccc2)cc1Cl` (centres unmarked) [Compound 86], the pest or weed control at 500 ppm with Bortytis cinera and with Phakopsora pachyrhizi was greater than 70% in each case. In the assay on Pyricularia oryzae, the inhibition of growth at 300 ppm was greater than 70%.

Regarding `CCN(C)C=Nc1cc(Br)c(N=S(C)(=O)c2cccc(OC)c2)nc1C` (centres unmarked) [Compound 87], the pest or weed control at 500 ppm in the assay with Bortytis cinera was greater than 70%.

`CCN=S(=O)(c1ccccc1Oc1cc(Cl)c(N=CN(C)CC)cc1C)C(F)(F)F` (centres unmarked) [Compound 150]: the inhibition of growth at 300 ppm with Rhizoctonia solani and with Alternaria solani was greater than 70% each time. Moreover, in the assay on Fusarium culmorum, the “control compared to the untreated check” value was 70%. In addition, the pest or weed control at 500 ppm with Phakopsora pachyrhizi was greater than 70%.

As to `CCN(C)C=Nc1cc(C)c(Oc2ccc(S(C)(=O)=NC(F)(F)F)cc2)cc1Cl` (centres unmarked) [Compound 134], the inhibition of growth at 300 ppm with Rhizoctonia solani, in the assay with Septoria lycopersici and in the assay with Alternaria solani was greater than 70% each time.

As to `CCN(C)C=Nc1cc(C)c(S(=O)(CC(C)C)=Nc2ccc(OC)c(OC)c2)cc1Cl` (centres unmarked) [Compound 124], the inhibition of growth at 300 ppm in the assay on Rhizoctonia solani, in the assay with Septoria lycopersici and with Alternaria solani was greater than 70% throughout.

For the compound `CCN(C)C=Nc1cc(C)c(Oc2cccc(S(C)(=O)=Nc3ccccc3)c2)cc1C` (centres unmarked) [Compound 98], the pest or weed control at 500 ppm with Bortytis cinera is greater than 70%.

Turning to `CCN=S(=O)(CCC(C)C)c1cccc(Oc2cc(Cl)c(N=CN(C)CC)cc2C)c1` (centres unmarked) [Compound 25], the inhibition of growth at 300 ppm with Pyricularia oryzae and with Alternaria solani was greater than 70% each time. Also, in the assay on Fusarium culmorum, the “control compared to the untreated check” value was determined as 70%.

For `CCN(C)C=Nc1cc(C)c(Oc2cccc(S(C)(=O)=NCc3ccccc3)c2)cc1Cl` (centres unmarked) [Compound 21], the inhibition of growth at 300 ppm in the assay with Rhizoctonia solani and in the assay with Alternaria solani was greater than 70% each time. Also, the pest or weed control at 500 ppm with Bortytis cinera and in the assay with Phakopsora pachyrhizi was greater than 70% throughout.

Take `CCN(C)C=Nc1cc(C)c(N=S(C)(=O)c2ccccc2)cc1C` (centres unmarked) [Compound 4]: the “control compared to the untreated check” value in the assay on Fusarium culmorum turned out to be 70%.

Take `CCN(C)C=Nc1cc(C)c(S(=O)(CC(C)C)=Nc2ccsc2)cc1Cl` (centres unmarked) [Compound 114]: the inhibition of growth at 300 ppm in the assay with Rhizoctonia solani, in the assay on Septoria lycopersici and with Alternaria solani was greater than 70% in each case. Further, the pest or weed control at 500 ppm in the assay with Phakopsora pachyrhizi was greater than 70%.

Consider `CCN(C)C=Nc1cc(C)c(Oc2cccc(S(C)(=O)=NCC(F)(F)F)c2)cc1C` (centres unmarked) [Compound 96], for which the inhibition of growth at 300 ppm in the assay on Rhizoctonia solani, with Septoria lycopersici and with Alternaria solani was greater than 70% each time. In addition, the pest or weed control at 500 ppm with Bortytis cinera was greater than 70%.

In the case of `CCN(C)C=Nc1cc(C)c(Oc2ccccc2S(=N)(=O)C(F)(F)F)cc1Cl` (centres unmarked) [Compound 147], the “control compared to the untreated check” value in the assay with Fusarium culmorum is on record as 70%.

As for `CCN(C)C=Nc1cc(C)c(S(=O)(CC(C)C)=Nc2cc(C(F)(F)F)cc(C(F)(F)F)c2)cc1Cl` (centres unmarked) [Compound 85], the pest or weed control at 500 ppm with Bortytis cinera and in the assay with Phakopsora pachyrhizi was greater than 70% in each case.

Turning to `CCN(C)C=Nc1cc(C)c(Oc2cccc(S(=O)(=NCC3CC3)C(F)(F)F)c2)cc1Cl` (centres unmarked) [Compound 144], the “control compared to the untreated check” value with Fusarium culmorum is 70%.

As for `CCN(C)C=Nc1cc(C)c(S(=O)(CC)=NC(=O)c2cccc(OC)c2)cc1Cl` (centres unmarked) [Compound 50], the inhibition of growth at 300 ppm in the assay with Rhizoctonia solani and with Alternaria solani was greater than 70% in each case. In addition, the pest or weed control at 500 ppm in the assay with Bortytis cinera and with Phakopsora pachyrhizi was greater than 70% each time.

`CCN(C)C=Nc1cc(C)c(Cc2ccc(S(C)(=N)=O)cc2)cc1C` (centres unmarked) [Compound 128]: the pest or weed control at 500 ppm with Bortytis cinera is greater than 70%. Further, the inhibition of growth at 300 ppm with Pyricularia oryzae and in the assay with Alternaria solani was greater than 70% each time.

`CCN(C)C=Nc1cc(Br)c(N=S(=O)(CCC(C)C)c2cccc(OC)c2)nc1C` (centres unmarked) [Compound 77]: the pest or weed control at 500 ppm with Bortytis cinera and with Phakopsora pachyrhizi was greater than 70% in each case.

As for `CCN=S(C)(=O)c1cccc(Nc2cc(C)c(N=CN(C)CC)cc2C)c1` (centres unmarked) [Compound 140], the inhibition of growth at 300 ppm in the assay with Rhizoctonia solani, in the assay with Septoria lycopersici and in the assay with Alternaria solani was greater than 70% each time. For the same compound, the “control compared to the untreated check” value in the assay on Fusarium culmorum stood at 70%.

Turning to `CCN(C)C=Nc1cc(C)c(N=S(=O)(CCC(C)C)c2cccc(OC)c2)cc1C` (centres unmarked) [Compound 76], the pest or weed control at 500 ppm with Bortytis cinera and in the assay on Phakopsora pachyrhizi was greater than 70% throughout. Besides, in the assay with Pyricularia oryzae, the inhibition of growth at 300 ppm was greater than 70%.

Regarding `CCN(C)C=Nc1cc(C)c(Oc2cccc(S(=O)(=NC(=O)C(F)(F)F)C(C)C)c2)cc1Cl` (centres unmarked) [Compound 10], the “control compared to the untreated check” value with Fusarium culmorum was 70%.

For `CCN(C)C=Nc1cc(C)c(Oc2ccc(S(C)(=O)=NCC3CC3)cc2)cc1Cl` (centres unmarked) [Compound 127], in the assay on Bortytis cinera, the pest or weed control at 500 ppm is greater than 70%. The inhibition of growth at 300 ppm in the assay with Pyricularia oryzae and with Alternaria solani was greater than 70% in each case.

Consider `CCN(C)C=Nc1cc(C)c(S(C)(=O)=NCc2cccc(OC(F)(F)F)c2)cc1Cl` (centres unmarked) [Compound 92], for which the inhibition of growth at 300 ppm with Rhizoctonia solani, in the assay with Septoria lycopersici and with Alternaria solani was greater than 70% throughout.

With `CCN(C)C=Nc1cc(C)c(S(C)(=O)=NCc2cccc(Cl)c2)cc1Cl` (centres unmarked) [Compound 90], the inhibition of growth at 300 ppm with Rhizoctonia solani, in the assay on Septoria lycopersici and in the assay with Alternaria solani was greater than 70% throughout. For the same compound, the pest or weed control at 500 ppm in the assay on Phakopsora pachyrhizi is greater than 70%.

Turning to `CCN(C)C=Nc1cc(C)c(S(=O)(CC(C)C)=Nc2ccc(N3CCOCC3)cc2)cc1Cl` (centres unmarked) [Compound 113], the inhibition of growth at 300 ppm with Rhizoctonia solani, in the assay on Septoria lycopersici and with Alternaria solani was greater than 70% each time.
